Results reported in patent US4357344A, “Polybutylbenzylphenols and benzyl-3,4-methylenedioxybenzenes in insect population control” (The United States of America as represented by the …, priority 1979, dated 1982).

What was measured:
Format in all cases: in vivo
flies (family Muscidae) [1] = test: Oviposition inhibition tests (treated fly food; Examples 6-9)
Experimental: The compound to be tested was administered in a standard fly food containing 6 parts of sugar, 6 parts of powdered non-fat dry milk, and 1 part of powdered egg yolk. Treated food was prepared by mixing an appropriate amount of a solution or suspension of CBCP in acetone with a batch of the food. The acetone was evaporated (4-6 hours) and the dry material was repulverized. Oviposition inhibition tests: Samples of treated food with a container of water were placed in cages containing 100 newly-emerged adult flies (family Muscidae). After the flies had been exposed to the treated diet for 6-7 days, 1/2 inch of moist standard fly larva-rearing medium (CSMA) in souffle cups was placed in the cages for oviposition. After 4-6 hours, the cup was removed and examined for eggs. […] The procedure outlined in Example 6 was followed using a Group II compound. The procedure outlined in Example 6 was followed using Group III compounds. The results are summarized below: The procedure outlined in Example 6 was followed substituting a Group IV compound for those of Group I. The table below provides a summary of results.

[2] = system: early fourth-stage larvae of the common malaria mosquito (Anopheles quadrimaculatus); test: Growth-inhibition tests on mosquito larvae; conditions: in water; corrected by Abbott's formula
Experimental: The compound to be tested was added to one liter of water until the final concentration thereof was a growth-inhibiting amount. Fifty early fourth-stage larvae of the common malaria mosquito (Anopheles quadrimaculatus) were placed on this water. Larval food was administered daily. Dead larvae and pupae were removed, counted, and discarded daily. Live pupae were removed, rinsed, and transferred to a cup of distilled water. The cup was placed in an emergence cage, and the emerging adults, if any, were maintained on a sugar-water diet.
The effectiveness of the compound in inhibiting growth was determined by adding the number of dead larvae and pupae and the number of adults that were dead, unable to complete eclosion, and malformed. This sum was corrected by Abbott's formula (to adjust for the number of larvae or pupae which would die naturally) and designated as the GI (growth inhibition). The results are expressed as GI-90, i.e., the concentration of growth inhibitor in ppm that would prevent and/or retard growth in 90% of the treated larvae.

flies (family Muscidae) [3] = test: Chemosterilancy tests (egg hatch and pupal development; Examples 6-9)
Experimental: The compound to be tested was administered in a standard fly food containing 6 parts of sugar, 6 parts of powdered non-fat dry milk, and 1 part of powdered egg yolk. Treated food was prepared by mixing an appropriate amount of a solution or suspension of CBCP in acetone with a batch of the food. The acetone was evaporated (4-6 hours) and the dry material was repulverized.
Chemosterilancy tests: If eggs were laid in the above tests, the cups were filled with water and stirred to break up the egg masses. A random sample of 100 eggs from each cup was collected and placed on a small piece of black cloth which was then laid on top of moist larva-rearing medium in a rearing container. Observations were made to determine percentage of egg hatch and pupal development.
The procedure outlined in Example 6 was followed using a Group II compound.
The procedure outlined in Example 6 was followed using Group III compounds. The results are summarized below:
The procedure outlined in Example 6 was followed substituting a Group IV compound for those of Group I. The table below provides a summary of results.

Row | Compound | Mortality, parent generation (flies (family Muscidae) [1]; 0.05% in food) | Mortality, parent generation (flies (family Muscidae) [1]; 0.1% in food) | Mortality, parent generation (flies (family Muscidae) [1]; 0.25% in food) | Mortality, parent generation (flies (family Muscidae) [1]; 0.5% in food) | GI-90 (concentration of growth inhibitor that would prevent and/or retard growth in 90% of the treated larvae) [2] | Egg hatch (flies (family Muscidae) [3]; 0.05% in food) | Pupal development (flies (family Muscidae) [3]; 0.05% in food) | Egg hatch (flies (family Muscidae) [3]; 0.1% in food) | Pupal development (flies (family Muscidae) [3]; 0.1% in food) | Egg hatch (flies (family Muscidae) [3]; 0.25% in food) | Pupal development (flies (family Muscidae) [3]; 0.25% in food) | further results
1 | COc1c(C)cc(Cc2ccc3c(c2)OCO3)cc1C [JJ, (3,5-Dimethyl-4-methoxybenzyl)-3,4-methylenedioxybenzene] | 0% | 0% | 0% | 70% | 0.6 ppm | 70% | 70% | 6% | 6% | 0% | 0% | 
2 | COc1ccc(Cc2cc3c(cc2OC)OCO3)cc1 [L, (4-Methoxybenzyl)-3,4-methylenedioxy-6-methoxybenzene] | 0% | 0% | 60% |  |  | 0% | 0% | 0% | 0% |  |  | Mortality, parent generation (flies (family Muscidae) [1]; 0.01% in food): 0%; Egg hatch (flies (family Muscidae) [3]; 0.01% in food): 91%; Pupal development (flies (family Muscidae) [3]; 0.01% in food): 91%
3 | CCOc1c(C)cc(Cc2ccc3c(c2)OCO3)cc1C [KK] |  |  | 0% | 85% | 0.9 ppm |  |  |  |  | 85% | 85% | 
4 | CCCCOc1cc2c(cc1C(C)c1ccc(OC)cc1)OCO2 (stereo not drawn) [J, (α-methyl-4-methoxybenzyl)-3,4-methylenedioxy-6-n-butoxybenzene] | 0% |  |  |  | 0.025 ppm | 3% | 3% |  |  |  |  | Mortality, parent generation (flies (family Muscidae) [1]; 0.01% in food): 0%; Mortality, parent generation (flies (family Muscidae) [1]; 0.025% in food): 0%; Egg hatch (flies (family Muscidae) [3]; 0.025% in food): 61%; Pupal development (flies (family Muscidae) [3]; 0.025% in food): 61%
5 | COc1ccc(C(C)c2cc3c(cc2OC)OCO3)cc1 (stereo not drawn) [H, (α-Methyl-4-methoxybenzyl)-3,4-methylenedioxy-6-methoxybenzene] |  |  |  |  | 0.5 ppm |  |  |  |  |  |  | Mortality, parent generation (flies (family Muscidae) [1]; 0.01% in food): 0%; Mortality, parent generation (flies (family Muscidae) [1]; 0.025% in food): 0%; Egg hatch (flies (family Muscidae) [3]; 0.01% in food): 14%; Pupal development (flies (family Muscidae) [3]; 0.01% in food): 14%; Egg hatch (flies (family Muscidae) [3]; 0.025% in food): 45%; Pupal development (flies (family Muscidae) [3]; 0.025% in food): 45%
6 | COc1ccc(Cc2cc3c(cc2OC(C)C)OCO3)cc1 [O, (4-Methoxybenzyl)-3,4-methylenedioxy-6-iso-propoxybenzene] | 0% |  | 0% | 80% | 0.8 ppm | 48% | 48% |  |  | 0% | 0% | 
7 | CCCCCOc1cc2c(cc1C(C)c1ccccc1)OCO2 (stereo not drawn) [W, (α-Methylbenzyl)-3,4-methylenedioxy-6-n-pentoxybenzene] |  |  |  |  | 0.2 ppm |  |  |  |  |  |  | 
8 | CCOc1cc2c(cc1Cc1ccc3c(c1)OCO3)OCO2 [NN, (3,4-methylenedioxy-6-ethoxybenzyl)-3,4-methylenedioxybenzene] | 0% | 0% |  |  |  | 2% | 2% | 0% | 0% |  |  | 
9 | CCOc1ccc(Cc2ccc3c(c2)OCO3)cc1C [II, (3-Methyl-4-ethoxybenzyl)-3,4-methylenedioxybenzene] |  |  | 0% | 80% |  |  |  |  |  | 50% | 50% | 
10 | CCCc1cc2c(cc1Cc1ccc(OC)cc1)OCO2 [DD, (4-Methoxybenzyl)-3,4-methylenedioxy-6-n-propylbenzene] | 0% | 0% | 0% |  | 0.2 ppm | 0% | 0% | 0% | 0% |  |  | Mortality, parent generation (flies (family Muscidae) [1]; 0.025% in food): 0%; Egg hatch (flies (family Muscidae) [3]; 0.025% in food): 7%; Pupal development (flies (family Muscidae) [3]; 0.025% in food): 7%
11 | COc1ccc(Cc2ccc3c(c2)OCO3)c(OC)c1 [LL, (2,4-Dimethoxybenzyl)-3,4-methylenedioxybenzene] |  | 0% | 60% |  | 0.2 ppm |  |  | 76% | 76% |  |  | 
12 | COc1ccc(Cc2ccc3c(c2)OCO3)cc1C [HH, (3-Methyl-4-methoxybenzyl)-3,4-methylenedioxybenzene] |  | 0% | 80% |  |  |  |  | 82% | 82% |  |  | 
13 | CC(c1ccccc1)c1cc(C(C)(C)C)c(O)c(C(C)(C)C)c1 (stereo not drawn) [E, 2,6-Di-t-butyl-4-(α-methylbenzyl)phenol] |  | 0% | 0% | 0% | 0.072 ppm |  |  | 36% | 36% | 0% | 0% | Mortality, parent generation (flies (family Muscidae) [1]; 1.0% in food): 0%; Oviposition (flies (family Muscidae) [1]; 1.0% in food): Normal; Egg hatch (flies (family Muscidae) [3]; 0.5% in food): 0%; Pupal development (flies (family Muscidae) [3]; 0.5% in food): 0%; Egg hatch (flies (family Muscidae) [3]; 1.0% in food): 0%; Pupal development (flies (family Muscidae) [3]; 1.0% in food): 0%
14 | CCCOc1cc2c(cc1C(C)c1ccccc1)OCO2 (stereo not drawn) [U, (α-Methylbenzyl)-3,4-methylenedioxy-6-n-propoxybenzene] | 0% | 0% | 0% | 0% | 0.3 ppm | 0% | 0% | 0% | 0% | 0% | 0% | Mortality, parent generation (flies (family Muscidae) [1]; 0.025% in food): 0%; Mortality, parent generation (flies (family Muscidae) [1]; 1.0% in food): 0%; Egg hatch (flies (family Muscidae) [3]; 0.025% in food): 42%; Pupal development (flies (family Muscidae) [3]; 0.025% in food): 42%; Egg hatch (flies (family Muscidae) [3]; 0.5% in food): 0%; Pupal development (flies (family Muscidae) [3]; 0.5% in food): 0%; Egg hatch (flies (family Muscidae) [3]; 1.0% in food): 0%; Pupal development (flies (family Muscidae) [3]; 1.0% in food): 0%
15 | COc1cc2c(cc1C(C)c1ccccc1)OCO2 (stereo not drawn) [Compound T, (α-Methylbenzyl)-3,4-methylenedioxy-6-methoxybenzene] |  |  | 60% | 42% | 0.6 ppm |  |  |  |  | 56% | 56% | Egg hatch (flies (family Muscidae) [3]; 0.5% in food): 0%; Pupal development (flies (family Muscidae) [3]; 0.5% in food): 0%
16 | CCCCCOc1cc2c(cc1Cc1ccc(OC)cc1)OCO2 [R] | 0% | 0% | 0% |  |  | 76% | 76% | 31% | 31% | 0% | 0% | 
17 | CCCCOc1cc2c(cc1C(C)c1ccccc1)OCO2 (stereo not drawn) [V, (α-Methylbenzyl)-3,4-methylenedioxy-6-n-butoxybenzene] |  |  |  | 0% | 0.097 ppm |  |  |  |  |  |  | Egg hatch (flies (family Muscidae) [3]; 0.5% in food): 34%; Pupal development (flies (family Muscidae) [3]; 0.5% in food): 34%
